The values that follow come from US10000471B2, “Pyrazole P38 map kinase inhibitors” (Respivert Limited, priority 2010, dated 2018).

pEC50, pIC50: −log10 of the molar value.

One series addresses T1, p38 MAPKγ (MAPK12) (Homo sapiens, UniProt P53778).
T1 construct: purchased Invitrogen
T1 sequence (P53778 1-367): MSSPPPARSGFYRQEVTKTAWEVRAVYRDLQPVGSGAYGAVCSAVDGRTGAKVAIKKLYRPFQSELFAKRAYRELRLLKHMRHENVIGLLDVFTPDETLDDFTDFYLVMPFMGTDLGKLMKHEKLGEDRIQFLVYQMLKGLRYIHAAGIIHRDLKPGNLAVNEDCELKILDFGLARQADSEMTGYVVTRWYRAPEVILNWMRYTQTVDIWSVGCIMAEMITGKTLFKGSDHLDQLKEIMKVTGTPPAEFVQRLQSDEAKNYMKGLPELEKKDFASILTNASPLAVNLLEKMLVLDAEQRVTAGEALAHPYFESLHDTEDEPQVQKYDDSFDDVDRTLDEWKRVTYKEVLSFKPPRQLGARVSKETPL
Put plainly: Enzyme inhibition assay (FRET, Z-LYTE), p38 MAPKγ. The format is biochemical. To be noted: read-out: Enzyme Inhibition IC50 p38γ. The method, then:
(§1) The enzyme inhibitory activities of compounds disclosed herein were determined by fluorescence resonance energy transfer (FRET) using synthetic peptides labelled with both donor and acceptor fluorophores (Z-LYTE, Invitrogen Ltd., Paisley, UK). Recombinant, phosphorylated p38 MAPKγ (MAPK12:Invitrogen) was diluted in HEPES buffer, mixed with the test compound at the desired final concentrations and incubated for 2 hr at RT. The FRET peptide (2 μM) and ATP (100 μM) were added to the enzyme/compound mixture and incubated for 1 hr. Development reagent (protease) was added for 1 hr prior to detection in a fluorescence microplate reader (Varioskan® Flash, ThermoFisher Scientific). The site-specific protease cleaves non-phosphorylated peptide only and eliminates the FRET signal. Phosphorylation levels of each reaction were calculated using the ratio of coumarin emission (donor) over fluorescein emission (acceptor) for which high ratios indicate high phosphorylation and low ratios indicate low phosphorylation levels. The percentage inhibition of each reaction was calculated relative to non-inhibited control and the 50% inhibitory concentration (IC50 value) then calculated from the concentration-response curve.

In series [1] the test system is TNFα release in THP-1 cells. Put plainly: LPS-induced TNFα release in THP-1 cells. To be noted: Homo sapiens. The format is cell-based, human. The method, then: LPS-Induced TNFα Release in THP-1 Cells
THP-1 cells, a human monocytic cell line, were stimulated with 3 μg/mL of LPS (from E. Coli; 0111:B4, Sigma) for 4 hr and the supernatant collected for determination of the TNFα concentration by sandwich ELISA (Duo-set, R&D systems). The inhibition of TNFα production was calculated at each concentration by comparison with vehicle control. The 50% inhibitory concentration (IC50) was determined from the resultant concentration-response curve.

Series [2] relates to Differentiated U937 cells. Put plainly: Cell viability MTT assay. The format is cell-based, human. To be noted: negative = apparent increase in viability; for MTT Assay (Viability) 4 h d-U937, percentage loss of cell viability: 4 hr in 5% FCS; for MTT Assay (Viability) 24 h d-U937, percentage loss of cell viability: 24 h in 10% FCS. The method, then: Differentiated U937 cells were pre-incubated with each test compound under two protocols: the first for 4 hr in 5% FCS and the second in 10% FCS for 24 h. The supernatant was replaced with 200 μL of new media and 10 μL of MTT stock solution (5 mg/mL) was added to each well. After incubation for 1 hr the media were removed, 200 μL of DMSO was added to each well and the plates were shaken lightly for 1 hr prior to reading the absorbance at 550 nm. The percentage loss of cell viability was calculated for each well relative to vehicle (0.5% DMSO) treatment. Consequently an apparent increase in cell viability for drug treatment relative to vehicle is tabulated as a negative percentage.
A general note: Tetrazolium dyes change colour on reduction, which living cells bring about.

Series [3] concerns TNFα release in d-U937 cells. As to the kind of experiment: LPS-induced TNFα release in d-U937 cells. The series is classed as cell-based, human. To be noted: Homo sapiens, dU937, relative to 10 μg/mL BIRB796, read-out: LPS/TNFα REC50 d-U937. The method, then: (§2) LPS-Induced TNFα/IL-8 Release in d-U937 Cells
(§3) U937 cells, a human monocytic cell line, were differentiated to macrophage-type cells by incubation with phorbol myristate acetate (PMA; 100 ng/ml) for 48 to 72 hr. Cells were pre-incubated with final concentrations of test compound for 2 hr and were then stimulated with 0.1 μg/mL of LPS (from E. Coli: O111:B4, Sigma) for 4 hr. The supernatant was collected for determination of TNFα and IL-8 concentrations by sandwich ELISA (Duo-set, R&D systems). The inhibition of TNFα production was calculated as a percentage of that achieved by 10 μg/mL of BIRB796 at each concentration of test compound by comparison against vehicle control. The relative 50% effective concentration (REC50) was determined from the resultant concentration-response curve. The inhibition of IL-8 production was calculated at each concentration of test compound by comparison with vehicle control. The 50% inhibitory concentration (IC50) was determined from the resultant concentration-response curve.

The subject of series [4] is IL-8 release in d-U937 cells. As to the kind of experiment: LPS-induced IL-8 release in d-U937 cells. The format is cell-based, human. To be noted: Homo sapiens, dU937. The method, then:
as §2, §3

The target of series [5] is T2, p38 MAPKα isoform (MAPK14) (Homo sapiens, UniProt Q16539).
T2 construct: purchased Invitrogen
T2 sequence (Q16539 whole entry, canonical isoform): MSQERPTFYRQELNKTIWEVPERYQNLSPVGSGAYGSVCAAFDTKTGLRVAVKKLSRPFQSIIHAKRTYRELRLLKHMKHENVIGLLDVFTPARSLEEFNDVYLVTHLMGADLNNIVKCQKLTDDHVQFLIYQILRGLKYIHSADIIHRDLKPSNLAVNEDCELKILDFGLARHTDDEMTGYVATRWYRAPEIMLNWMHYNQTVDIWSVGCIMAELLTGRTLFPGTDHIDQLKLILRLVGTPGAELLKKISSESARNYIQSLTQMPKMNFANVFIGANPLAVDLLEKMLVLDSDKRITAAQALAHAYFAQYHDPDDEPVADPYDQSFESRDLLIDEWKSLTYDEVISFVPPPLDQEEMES
As to the kind of experiment: Enzyme inhibition assay (FRET, Z-LYTE), p38 MAPKα via MAPKAP-K2 activation. The series is classed as biochemical. To be noted: read-out: Enzyme Inhibition IC50 p38α. The protocol: as §1
For the p38 MAPKα isoform (MAPK14: Invitrogen), enzyme activity was evaluated indirectly by determining the level of activation/phosphorylation of the down-stream molecule, MAPKAP-K2. The p38 MAPKα protein was mixed with the test compound for 2 hr at RT. […] Development reagent was then added and the mixture incubated for 1 hr before detection by fluorescence completed the assay protocol.

The test system of series [6] is ICAM-1 induction in BEAS2B cells. Put plainly: Poly I:C-induced ICAM-1 induction in BEAS2B cells. The series is classed as cell-based, human. To be noted: Homo sapiens, BEAS-2B, read-out: PolyIC/ICAM1 IC50 BEAS2B. The method, then: Poly I:C-Induced ICAM-1 Induction in BEAS2B Cells
Poly I:C (1 μg/mL) (Invivogene Ltd., San Diego, Calif.) was transfected into BEAS2B cells (human bronchial epithelial cells, ATCC) with Oligofectamine (Invitrogen, Carlsbad, Calif.). Cells were pre-incubated with final concentrations of test compounds for 2 hr and the level of ICAM1 expression on the cell surface was determined by cell-based ELISA. At a time point 18 hr after poly I:C transfection, cells were fixed with 4% formaldehyde in PBS and then endogenous peroxidase was quenched by the addition of 0.1% sodium azide and 1% hydrogen peroxide. Cells were washed with wash-buffer (0.1% Tween in PBS: PBS-Tween). and after blocking the wells with 5% milk in PBS-Tween for 1 hr, the cells were incubated with anti-human ICAM-1 antibody (Cell Signaling Technology, Danvers, Mass.) in 1% BSA PBS overnight at 4° C. The cells were washed with PBS-Tween and incubated with the secondary antibody (HRP-conjugated anti-rabbit IgG, Dako Ltd., Glostrup, Denmark). The ICAM-1 signal was detected by adding substrate and reading the absorbance at 450 nm against a reference wavelength of 655 nm using a spectrophotometer. The cells were then washed with PBS-Tween and total cell numbers in each well were determined by reading absorbance at 595 nm after Crystal Violet staining and elution by 1% SDS solution. The measured OD 450-655 readings were corrected for cell number by dividing with the OD595 reading in each well. The inhibition of ICAM-1 expression was calculated at each concentration of test compound by comparison with vehicle control. The 50% inhibitory concentration (IC50) was determined from the resultant concentration-response curve.

With `COCC(=O)Nc1cc(Oc2ccc(NC(=O)Nc3cc(C(C)(C)C)nn3-c3ccc(C)cc3)c(F)c2)ccn1` [Example 1, N-(4-(4-(3-(3-tert-Butyl-1-p-tolyl-1H-pyrazol-5-yl)ureido)-3-fluorophenoxy)pyridin-2-yl)-2-methoxyacetamide], the pIC50 on p38 MAPKγ (MAPK12) was 7.39; in series [1], 9.05; in series [4], 8.02; in series [5] it was 6.98; in series [6], 8.06. Moreover, the “MTT Assay (Viability) 4 h d-U937, percentage loss of cell viability” value in series [2] was 1.7%. In addition, the “MTT Assay (Viability) 24 h d-U937, percentage loss of cell viability” value in series [2] is recorded as 76.1%. In addition, in series [3], the pEC50 was 8.64.
For `COCC(=O)Nc1cc(Oc2ccc(NC(=O)Nc3cc(C(C)(C)C)nn3-c3ccc(C)cc3)c(S(C)(=O)=O)c2)ccn1` [Example 2, N-(4-(4-(3-(3-tert-Butyl-1-p-tolyl-1H-pyrazol-5-yl)ureido)-3-(methylsulfonyl)phenoxy)pyridin-2-yl)-2-methoxyacetamide], the pIC50 at p38 MAPKγ (MAPK12) is 6.44; in series [1], 8.28; in series [4], 6.76; in series [5], 7.42; in series [6], 6.37. Further, the “MTT Assay (Viability) 4 h d-U937, percentage loss of cell viability” value in series [2] is −3.1%. In addition, the “MTT Assay (Viability) 24 h d-U937, percentage loss of cell viability” value in series [2] turned out to be 32.7%. Moreover, the pEC50 in series [3] was 7.53.
Regarding `COCC(=O)Nc1cc(Oc2ccc(NC(=O)Nc3cc(C(C)(C)C)nn3-c3ccc(C)cc3)c(C(F)(F)F)c2)ccn1` [Example 3, N-(4-(4-(3-(3-tert-Butyl-1-p-tolyl-1H-pyrazol-5-yl)ureido)-3-(trifluoromethyl)phenoxy)pyridin-2-yl)-2-methoxyacetamide], the pIC50 is 6.76 at p38 MAPKγ (MAPK12); 9.00 in series [1]; 7.39 in series [4]; 8.29 in series [5]; 7.61 in series [6]. Also, the “MTT Assay (Viability) 4 h d-U937, percentage loss of cell viability” value in series [2] came out at 3.4%. In series [2], the “MTT Assay (Viability) 24 h d-U937, percentage loss of cell viability” value turned out to be 22.9%. In addition, the pEC50 in series [3] is 8.96.
As to `COCC(=O)Nc1cc(Oc2ccc(NC(=O)Nc3cc(C(C)(C)C)nn3-c3ccc(C)cc3)c(Cl)c2C#N)ccn1` [Example 4, N-(4-(4-(3-(3-tert-Butyl-1-p-tolyl-1H-pyrazol-5-yl)ureido)-3-chloro-2-cyanophenoxy)pyridin-2-yl)-2-methoxyacetamide], the pIC50 on p38 MAPKγ (MAPK12) is 6.62; in series [1] it was 9.70; in series [4], 10.00; in series [5], 8.35; in series [6], 8.96. Moreover, the “MTT Assay (Viability) 4 h d-U937, percentage loss of cell viability” value in series [2] is −24.1%. In series [2], the “MTT Assay (Viability) 24 h d-U937, percentage loss of cell viability” value is listed as 64.5%. For the same compound, the pEC50 in series [3] is 10.00.
Consider `COCC(=O)Nc1cc(Oc2ccc(NC(=O)Nc3cc(C(C)(C)C)nn3-c3ccc(C)cc3)c3c2CCCC3)ccn1` [Example 5, N-(4-(4-(3-(3-tert-Butyl-1-p-tolyl-1H-pyrazol-5-yl)ureido)-5,6,7,8-tetrahydronaphthalen-1-yloxy)pyridin-2-yl)-2-methoxyacetamide], for which the pIC50 at p38 MAPKγ (MAPK12) was 5.87; in series [1], 8.85; in series [4] it was 7.30; in series [5], 7.73; in series [6] it was 7.66. Also, the “MTT Assay (Viability) 4 h d-U937, percentage loss of cell viability” value in series [2] was −3.5%. Further, the “MTT Assay (Viability) 24 h d-U937, percentage loss of cell viability” value in series [2] came to 18.7%. For the same compound, the pEC50 in series [3] was 9.40.
For the compound `COCC(=O)Nc1cc(Oc2ccc(NC(=O)Nc3cc(C(C)(C)C)nn3-c3ccc(C)cc3)c3cccnc23)ccn1` [Example 6, N-(4-(5-(3-(3-tert-butyl-1-p-tolyl-1H-pyrazol-5-yl)ureido)quinolin-8-yloxy)pyridin-2-yl)-2-methoxyacetamide], the pIC50 is 7.24 at p38 MAPKγ (MAPK12); 8.80 in series [1]; 8.41 in series [4]; 8.17 in series [5]; 8.14 in series [6]. The “MTT Assay (Viability) 4 h d-U937, percentage loss of cell viability” value in series [2] is on record as −21.3%. Moreover, the “MTT Assay (Viability) 24 h d-U937, percentage loss of cell viability” value in series [2] was −14.6%. Besides, the pEC50 in series [3] was 10.00.
With `COCC(=O)Nc1cc(Oc2ccc(NC(=O)Nc3cc(C(C)(C)C)nn3-c3ccc(C)cc3)c3[nH]ncc23)ccn1` [Example 7, N-(4-(7-(3-(3-tert-Butyl-1-p-tolyl-1H-pyrazol-5-yl)ureido)-1H-indazol-4-yloxy)pyridin-2-yl)-2-methoxyacetamide], the pIC50 at p38 MAPKγ (MAPK12) is 7.44; in series [1], 6.95; in series [4], 6.91; in series [5], 8.89; in series [6] it was 6.83. Also, in series [2], the “MTT Assay (Viability) 4 h d-U937, percentage loss of cell viability” value is recorded as −2.0%. Also, the “MTT Assay (Viability) 24 h d-U937, percentage loss of cell viability” value in series [2] was 64.5%. In addition, the pEC50 in series [3] was 6.95.
For the compound `CNCC(=O)Nc1cc(Oc2ccc(NC(=O)Nc3cc(C(C)(C)C)nn3-c3ccc(CO)cc3)c(Cl)c2Cl)ccn1` [Example 8, N-(4-(4-(3-(3-tert-Butyl-1-(4-(hydroxymethyl)phenyl)-1H-pyrazol-5-yl)ureido)-2,3-dichlorophenoxy)pyridin-2-yl)-2-(methylamino)acetamide], the pIC50 on p38 MAPKγ (MAPK12) was 7.76; in series [1], 9.30; in series [4] it was 8.33; in series [5], 8.12; in series [6], 8.62. For the same compound, the “MTT Assay (Viability) 4 h d-U937, percentage loss of cell viability” value in series [2] is −7.0%. In addition, the “MTT Assay (Viability) 24 h d-U937, percentage loss of cell viability” value in series [2] was 85.6%. Also, in series [3], the pEC50 was 9.05.
